Experiments:
[1] = AB79-2001 phase 1b study in SLE: safety; assay type: in vivo, human; conditions: 15 patients, data still blinded (AB79 or placebo)
Description: AB79-2001 is a double-blind, placebo-controlled phase 1b study in patients with moderate to severe SLE. As of the clinical data cutoff, a total of 15 patients had received at least 1 dose of AB79 or placebo. Data is still blinded for this study. No new safety concerns have been identified.

[2] = test system: relapsed/refractory multiple myeloma (RRMM); assay: AB79-1501 study, AB79 plus PomDex combination cohort in RRMM: disease response; assay type: in vivo, human
Description: This is a multicenter, dose-escalation, open-label, single-arm, Phase 1/2a study designed to determine the safety, tolerability, efficacy, PK, and immunogenicity of AB79 monotherapy in patients with RRMM, and to provide a preliminary assessment of its activity against MM. This study is an amendment to the Phase 1/2a study in RRMM described in Example 1 (a) to allow for an increase in the number of patients enrolled in the Phase 1 study; and (b) to add a cohort of patients to evaluate AB79 combined with the backbone regimen of pomalidomide and dexamethasone (PomDex) in patients with RRMM who have received at least 2 prior therapies and are refractory to the last therapy before study entry. PomDex is approved for this patient population and adding an anti-CD38 monoclonal antibody to it, especially one that is given subcutaneously (SC), could be beneficial and convenient for patients.
The study provides a Confirmation Cohort and a Combination Cohort. […]
The preliminary efficacy of AB79 for MM is evaluated by measuring the ORR (defined as the proportion of patients who achieved a PR or better during study) and the composition of sCR, CR, VGPR, and PR as defined by the IMWG Uniform Response Criteria. MR will also be analyzed. In addition, the efficacy of AB79 is assessed in patients by measuring DOR, PFS, and 1-year OS. TTR will also be measured. […]

For “AB79: anti-CD38 monoclonal IgG1 antibody; heavy chain SEQ ID NO:11, light chain SEQ ID NO:12”, the “patients with a Grade 3 or higher TEAE or AEs leading to study drug discontinuation” value [1] was “No patient”, the “clinical benefit rate (minor response or better)” value [2] was 100% and the “preliminary objective response rate (ORR)” value [2] was 40%.

Reference: patent US20220241413A1, “COMBINATION THERAPIES USING CD-38 ANTIBODIES” (Takeda Pharmaceutical Company Limited, priority 2019, published 2022)
